Assays:
[1] = Pharmacokinetic test in rats; format: in vivo, SD rats; settings: i.g. (5 mg/kg), vehicle 5% DMSO+5% Solutol+10% PEG400+80% (20% SBE-β-CD)
Method: Experimental objective: In this experiment, a single dose of the test compound was administered to SD rats via intravenous administration and intragastric gavage, and the concentration of the test compound in plasma of the rats was measured to evaluate the pharmacokinetic profile of the test compound in the rats.
Experimental animals: Male SD rats, 200-220 g, 6 rats/compound, purchased from Chengdu Ddossy Experimental Animals Co., Ltd.
Experimental method: On the day of the experiment, 6 SD rats were randomly grouped according to their body weights. The animals were fasted with water available for 12 to 14 h one day before the administration, and were fed 4 h after the administration. Table 3 Administration information of pharmacokinetic test in rats
Sampling: Before and after the administration, 0.1 mL of blood was taken from the orbits under isoflurane anaesthesia, and placed in an EDTAK2 centrifuge tube. Centrifugation was carried out at 5000 rpm at 4°C for 10 min, and the plasma was collected.
The plasma collection time points for IV&PO groups were 0, 5 min, 15 min, 30 min, 1 h, 2 h, 4 h, 7 h, 24 h, and 48 h.
Before analysis and detection, all samples were stored at -60°C. The samples were analysed quantitatively by LC-MS/MS. Table 4 Pharmacokinetic parameters of compounds of the present invention in plasma of rats

hERG potassium channel = target: T1, hERG potassium channel (Homo sapiens, UniProt Q12809); test: hERG potassium ion channel test (manual patch-clamp, CHO cells); format: cell-based; settings: chinese hamster; inhibitory activity against hERG potassium channel current, CHO cells, whole cell patch-clamp; read-out: IC50
T1 construct: expressed in transfected cells; host or cells: CHO cells stably expressing hERG
T1 sequence (Q12809 whole entry): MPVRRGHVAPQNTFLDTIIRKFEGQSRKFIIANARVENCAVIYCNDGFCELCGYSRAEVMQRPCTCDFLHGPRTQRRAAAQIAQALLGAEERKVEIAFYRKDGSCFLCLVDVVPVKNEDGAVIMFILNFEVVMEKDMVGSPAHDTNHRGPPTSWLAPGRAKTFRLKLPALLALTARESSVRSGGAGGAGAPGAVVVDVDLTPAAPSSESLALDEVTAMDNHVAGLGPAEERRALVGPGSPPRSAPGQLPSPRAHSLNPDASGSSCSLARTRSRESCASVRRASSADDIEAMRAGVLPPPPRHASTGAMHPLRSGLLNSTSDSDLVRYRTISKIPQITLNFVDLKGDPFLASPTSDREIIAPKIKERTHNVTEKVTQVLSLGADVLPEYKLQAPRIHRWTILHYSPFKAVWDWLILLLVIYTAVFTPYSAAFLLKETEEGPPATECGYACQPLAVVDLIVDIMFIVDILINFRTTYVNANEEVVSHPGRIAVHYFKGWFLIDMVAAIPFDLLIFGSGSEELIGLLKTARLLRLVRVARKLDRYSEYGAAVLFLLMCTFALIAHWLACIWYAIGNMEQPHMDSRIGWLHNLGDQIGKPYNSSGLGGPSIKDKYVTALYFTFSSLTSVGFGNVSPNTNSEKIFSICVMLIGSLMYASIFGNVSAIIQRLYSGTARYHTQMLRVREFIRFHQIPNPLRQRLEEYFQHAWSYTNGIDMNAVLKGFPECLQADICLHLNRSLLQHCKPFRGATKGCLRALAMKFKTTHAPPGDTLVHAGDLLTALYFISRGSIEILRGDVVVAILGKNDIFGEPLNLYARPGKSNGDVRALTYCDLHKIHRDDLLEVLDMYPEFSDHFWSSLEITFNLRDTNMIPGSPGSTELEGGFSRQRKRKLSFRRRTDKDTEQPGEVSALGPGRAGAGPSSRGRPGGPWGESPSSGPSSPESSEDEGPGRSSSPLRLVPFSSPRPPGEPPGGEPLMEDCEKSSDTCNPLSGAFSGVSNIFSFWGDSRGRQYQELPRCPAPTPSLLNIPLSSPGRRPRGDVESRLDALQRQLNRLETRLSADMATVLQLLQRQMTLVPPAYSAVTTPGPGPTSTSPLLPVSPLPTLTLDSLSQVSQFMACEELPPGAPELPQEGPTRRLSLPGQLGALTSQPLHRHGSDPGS

For `CC1(C)[C@H](NC(=O)c2ccc(N3CCC(CN4CCN5c6cc(F)c(C7CCC(=O)NC7=O)cc6CC[C@H]5C4)CC3)cc2)C(C)(C)[C@H]1Oc1ccc(C#N)c2ncccc12` (stereo partly drawn) [Compound 31], the F [1] was 49.1+12%, the AUC(0-t) ([1]; rat, plasma, po) was 5430 ± 1360 ng·h/mL and the IC50 (hERG potassium channel) was over 40 µM.
